Assays:
[1] = system: K. pneumoniae expressing the Class A carbapenemase KPC-2; test: Broth microdilution MIC assay with meropenem, K. pneumoniae KPC-2; format: cell-based; conditions: Fixed Mero (meropenem) 4 μg/mL; K. p. 156319 KPC-3
Procedure, shortened: (§1)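 Test compounds in 2-fold dilutions (16 to 0.125 μg/mL final) in CAMHB were combined with a β-lactam at a static 4 μg/ml final. Plates were inoculated per CLSI broth microdilution with the β-lactamase-producing strain (pre-grown 3-5 h) and incubated 16-20 h at 37° C. MIC of test compound was read visually.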

[2] = system: E. cloacae expressing the Class C P99; test: Broth microdilution MIC assay with ceftazidime, E. cloacae P99; format: cell-based; conditions: Fixed CAZ (ceftazidime) 4 μg/mL; E. cl. 144200 p99 AmpC
Procedure, shortened: as §1

[3] = system: P. aeruginosa expressing the Class B carbapenemase VIM-2; test: Broth microdilution MIC assay with meropenem, P. aeruginosa VIM-2; format: cell-based; conditions: Fixed Mero (meropenem) 4 μg/mL; P. aerug. 2775 VIM-2
Procedure, shortened: as §1

AmpC = target: T1, AmpC (Enterobacter cloacae, UniProt P05364); test: β-lactamase enzyme inhibition assay, p99 AmpC (nitrocefin substrate); format: biochemical
T1 construct: made in house; host or cells: E. coli BL21(DE3)
Procedure, shortened: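 Read-out is the rate of β-lactam ring hydrolysis monitored by absorbance. Recombinant native enzymes were first incubated with compound at 37 °C for 15 min. The IC50 is the inhibitor concentration that halves the initial hydrolysis rate.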

[4] = system: K. pneumoniae expressing the class A carbapenemase KPC-2 and the class B carbapenemase VIM-4; test: Broth microdilution MIC assay with meropenem, K. pneumoniae KPC-2 and VIM-4; format: cell-based; conditions: Fixed Mero (meropenem) 4 μg/mL; K. p. A-1797 KPC-2 VIM-4
Procedure, shortened: as §1

[5] = system: E. coli expressing the Class A Extended Spectrum Beta-Lactamase (ESBL) CTX-M-15; test: Broth microdilution MIC assay with ceftazidime, E. coli CTX-M-15; format: cell-based; conditions: Fixed CAZ (ceftazidime) 4 μg/mL; E. coli ESBL4 CTX-M-15
Procedure, shortened: as §1

VIM-2 = target: T2, VIM-2 (Escherichia coli, UniProt Q5U7L7); test: β-lactamase enzyme inhibition assay, VIM-2 (nitrocefin substrate); format: biochemical; conditions: Class B; nitrocefin substrate, 486 nm; read-out: VIM-2
T2 construct: made in house; host or cells: E. coli BL21(DE3)
Procedure, shortened: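 Purified VIM-2 preincubated with inhibitor for 15 min at 37° C, then nitrocefin (100 μM final) added and absorbance at 486 nm followed for 10 min. Maximum hydrolysis rates compared with inhibitor-free controls; IC50 fitted from percent inhibition across inhibitor concentrations.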

SHV-5 = target: T3, SHV-5 (Klebsiella pneumoniae, UniProt P0A3M1); test: β-lactamase enzyme inhibition assay, SHV-5 (cefotaxime substrate); format: biochemical
T3 construct: made in house; host or cells: E. coli BL21(DE3)
Procedure, shortened: (§2)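 Read-out is the rate of β-lactam ring hydrolysis monitored by absorbance: 300 nm for imipenem with KPC-2 and 260 nm for cefotaxime with SHV-5. Recombinant native enzymes were first incubated with compound at 37 °C for 15 min. The IC50 is the inhibitor concentration that halves the initial hydrolysis rate.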

[6] = system: K. pneumoniae producing the Class D carbapenemase OXA-48; test: Broth microdilution MIC assay with meropenem, K. pneumoniae OXA-48; format: cell-based; conditions: Fixed Mero (meropenem) 4 μg/mL; K. p. 11978 OXA-48
Procedure, shortened: as §1

OXA-48 = OXA-48 (UniProt Q6XEC0); test: β-lactamase enzyme inhibition assay, Class D oxacillinase; format: biochemical; conditions: read-out: OXA-48
KPC-2 = target: T4, KPC-2 (Klebsiella pneumoniae, UniProt Q9F663); test: β-lactamase enzyme inhibition assay, KPC-2 (imipenem substrate); format: biochemical; conditions: Class A; imipenem substrate, 300 nm; read-out: KPC-2
T4 construct: made in house; host or cells: E. coli BL21(DE3)
Procedure, shortened: as §2

T1 sequence (P05364 21-381): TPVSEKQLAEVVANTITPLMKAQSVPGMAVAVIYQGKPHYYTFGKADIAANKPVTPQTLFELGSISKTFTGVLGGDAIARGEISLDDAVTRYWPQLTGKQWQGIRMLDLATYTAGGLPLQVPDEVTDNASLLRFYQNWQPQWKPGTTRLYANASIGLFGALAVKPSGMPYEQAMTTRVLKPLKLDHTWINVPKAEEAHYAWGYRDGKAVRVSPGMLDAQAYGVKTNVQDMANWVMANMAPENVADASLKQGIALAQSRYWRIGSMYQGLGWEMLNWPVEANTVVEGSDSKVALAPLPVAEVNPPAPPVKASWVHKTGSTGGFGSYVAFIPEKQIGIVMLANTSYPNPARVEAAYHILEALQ
T4 sequence (Q9F663 25-293, looked up): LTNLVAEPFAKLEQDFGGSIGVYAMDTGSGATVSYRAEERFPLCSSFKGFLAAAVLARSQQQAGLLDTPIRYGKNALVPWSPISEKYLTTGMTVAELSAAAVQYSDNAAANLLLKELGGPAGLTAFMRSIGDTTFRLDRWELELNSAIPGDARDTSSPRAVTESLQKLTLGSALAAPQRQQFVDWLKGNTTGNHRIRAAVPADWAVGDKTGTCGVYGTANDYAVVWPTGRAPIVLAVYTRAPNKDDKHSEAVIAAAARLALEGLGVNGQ
T3 sequence (P0A3M1 22-286): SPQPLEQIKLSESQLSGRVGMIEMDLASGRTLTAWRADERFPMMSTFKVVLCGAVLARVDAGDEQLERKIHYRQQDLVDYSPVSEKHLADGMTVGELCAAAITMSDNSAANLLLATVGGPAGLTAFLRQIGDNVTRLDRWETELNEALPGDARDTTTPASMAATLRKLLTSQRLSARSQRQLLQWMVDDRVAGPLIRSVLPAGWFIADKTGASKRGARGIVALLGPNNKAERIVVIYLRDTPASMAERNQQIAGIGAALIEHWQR

| Structure (SMILES) | MIC (μg/mL) of Exemplary Compounds in presence of fixed β-lactams: K. p. 156319 KPC-3 [1] | MIC (μg/mL) of Exemplary Compounds in presence of fixed β-lactams: E. cl. 144200 p99 AmpC [2] | MIC (μg/mL) of Exemplary Compounds in presence of fixed β-lactams: P. aerug. 2775 VIM-2 [3] | IC50 (AmpC) [µM] | MIC (μg/mL) of Exemplary Compounds in presence of fixed β-lactams: K. p. A-1797 KPC-2 VIM-4 [4] | MIC (μg/mL) of Exemplary Compounds in presence of fixed β-lactams: E. coli ESBL4 CTX-M-15 [5] | IC50 (VIM-2) [µM] | IC50 (SHV-5) [µM] | MIC (μg/mL) of Exemplary Compounds in presence of fixed β-lactams: K. p. 11978 OXA-48 [6] | IC50 (OXA-48) [µM] | IC50 (KPC-2) [µM] |
| --- | --- | --- | --- | --- | --- | --- | --- | --- | --- | --- | --- |
| NCc1nnn(CC(=O)N[C@H]2Cc3cccc(C(=O)O)c3OB2O)c1-c1ccsc1 [Example 108, (R)-3-(2-(4-(aminomethyl)-5-(thiophen-3-yl)-1H-1,2,3-triazol-1-yl)acetamido)-2-hydroxy-3,4-dihydro-2H-benzo[e][1,2]oxaborinine-8-carboxylic acid] | B (B represents an MIC between 1 and 16 μg/mL inclusive) | B (B represents an MIC between 1 and 16 μg/mL inclusive) | C (C represents an MIC of <1 μg/mL) | < 0.1 | C (C represents an MIC of <1 μg/mL) | C (C represents an MIC of <1 μg/mL) | < 0.1 | 0.1 to 1 | B (B represents an MIC between 1 and 16 μg/mL inclusive) | < 0.1 | < 0.1 |
| NCCn1cnc(CC(=O)N[C@H]2Cc3cccc(C(=O)O)c3OB2O)n1 [Example 118, (R)-3-(2-(1-(2-aminoethyl)-1H-1,2,4-triazol-3-yl)acetamido)-2-hydroxy-3,4-dihydro-2H-benzo[e][1,2]oxaborinine-8-carboxylic acid] | C (C represents an MIC of <1 μg/mL) | C (C represents an MIC of <1 μg/mL) | C (C represents an MIC of <1 μg/mL) | < 0.1 | B (B represents an MIC between 1 and 16 μg/mL inclusive) | C (C represents an MIC of <1 μg/mL) | 1 to 10 | 0.1 to 1 | B (B represents an MIC between 1 and 16 μg/mL inclusive) | 0.1 to 1 | 0.1 to 1 |
| O=C(Cn1cc(-c2cccs2)nn1)N[C@H]1Cc2cccc(C(=O)O)c2OB1O [Example 28, (R)-2-hydroxy-3-(2-(4-(thiophen-2-yl)-1H-1,2,3-triazol-1-yl)acetamido)-3,4-dihydro-2H-benzo[e][1,2]oxaborinine-8-carboxylic acid] | B (B represents an MIC between 1 and 16 μg/mL inclusive) | C (C represents an MIC of <1 μg/mL) | B (B represents an MIC between 1 and 16 μg/mL inclusive) | < 0.1 | A (A represents an MIC>16 μg/mL) | C (C represents an MIC of <1 μg/mL) | 0.1 to 1 | < 0.1 | B (B represents an MIC between 1 and 16 μg/mL inclusive) | 0.1 to 1 | < 0.1 |
| CC(C)(C(=O)N[C@H]1Cc2cccc(C(=O)O)c2OB1O)n1cc(CN)nn1 [Example 33, (R)-3-(2-(4-(aminomethyl)-1H-1,2,3-triazol-1-yl)-2-methylpropanamido)-2-hydroxy-3,4-dihydro-2H-benzo[e][1,2]oxaborinine-8-carboxylic acid] | B (B represents an MIC between 1 and 16 μg/mL inclusive) | C (C represents an MIC of <1 μg/mL) | C (C represents an MIC of <1 μg/mL) | < 0.1 | C (C represents an MIC of <1 μg/mL) | C (C represents an MIC of <1 μg/mL) | < 0.1 | < 0.1 | B (B represents an MIC between 1 and 16 μg/mL inclusive) | < 0.1 | < 0.1 |
| CN(C)CCn1nnnc1CC(=O)N[C@H]1Cc2cccc(C(=O)O)c2OB1O [Example 49, (R)-3-(2-(1-(2-(dimethylamino)ethyl)-1H-tetrazol-5-yl)acetamido)-2-hydroxy-3,4-dihydro-2H-benzo[e][1,2]oxaborinine-8-carboxylic acid] | C (C represents an MIC of <1 μg/mL) | C (C represents an MIC of <1 μg/mL) | B (B represents an MIC between 1 and 16 μg/mL inclusive) | < 0.1 | B (B represents an MIC between 1 and 16 μg/mL inclusive) | C (C represents an MIC of <1 μg/mL) | 0.1 to 1 | < 0.1 | B (B represents an MIC between 1 and 16 μg/mL inclusive) | 0.1 to 1 | < 0.1 |
| O=C(Cn1nnc(CC(=O)N[C@H]2Cc3cccc(C(=O)O)c3OB2O)n1)N[C@H]1CCNC1 [Example 44] | B (B represents an MIC between 1 and 16 μg/mL inclusive) | C (C represents an MIC of <1 μg/mL) | C (C represents an MIC of <1 μg/mL) | < 0.1 | B (B represents an MIC between 1 and 16 μg/mL inclusive) | C (C represents an MIC of <1 μg/mL) | < 0.1 | < 0.1 | B (B represents an MIC between 1 and 16 μg/mL inclusive) | 0.1 to 1 | < 0.1 |

Reference: patent publication US11046716B2, “Beta-lactamase inhibitors” (priority 2015, dated 2021)
